Patent US20240408169A1 (priority 2023, published 2024)
Where two headings read alike, the source gives them in different places. *1 amine or outer side, *2 acyl side, *3 side chain or, on linkers, in order; H or OH if unused. Where a SMILES comes first, the peptide text is derived from it. Bridges are numbered along the chain shown (N, C = ends). [ ]: non-standard residue; d: D form. The star is where a group is joined. X73 = CN([C@@H](Cc1cc(Cl)ccc1-c1ccc(N2CCN(Cc3cnn(C)c3)CC2)cc1)C(=O)[*:2])[*:1]; X38 = CN([C@@H](Cc1cc(Cl)ccc1-c1ccc(N2C[C@H]3COC[C@H]3C2)cc1)C(=O)[*:2])[*:1]; X43 = CC(C)N1CCN(c2ccc(-c3ccc(Cl)cc3C[C@@H](C(=O)[*:2])N(C)[*:1])cc2)CC1; X82 = CN([C@@H](Cc1cc(Cl)ccc1-c1cnn(S(C)(=O)=O)c1)C(=O)[*:2])[*:1]; X18 = CC(=O)N1CCC(=Cc2ccc(Cl)cc2C[C@@H](C(=O)[*:2])N(C)[*:1])CC1; X56 = CN1CCc2cc(-c3ccc(Cl)cc3C[C@@H](C(=O)[*:2])N(C)[*:1])ccc2C1; X14 = Cc1nc(C)c(-c2ccc(Cl)cc2C[C@@H](C(=O)[*:2])N(C)[*:1])s1; X97 = CN([C@@H](Cc1cc(Cl)ccc1-c1ccn2ncnc2c1)C(=O)[*:2])[*:1]; NMehhhLys(Me) = CN([C@@H](CCCCCCCN(C)[*:3])C(=O)[*:2])[*:1]; X51 = CSc1cncc(-c2ccc(Cl)cc2C[C@@H](C(=O)[*:2])N(C)[*:1])c1; X64 = CN([C@@H](Cc1cc(Cl)ccc1OC1(C)CC1)C(=O)[*:2])[*:1]; NMe(hhhLys) = CN([C@@H](CCCCCCCN[*:3])C(=O)[*:2])[*:1]; NMe3Pal(2-OMe,5-Cl) = CN[C@@H](Cc1cc(Cl)cnc1OC)C(=O)O; Oxane2carbonyl(2R-CF3) = O=C([C@@]1(C(F)(F)F)CCCCO1)*; X33 = CN([C@@H](Cc1cc(Cl)cc2c1OCCO2)C(=O)[*:2])[*:1]; cBuCO(3,3-F2-1-CF3) = O=C(C1(C(F)(F)F)CC(F)(F)C1)*; Pro(trans-4-F) = O=C(O)[C@@H]1C[C@@H](F)CN1; Gly(cPr) = N[C@H](C(=O)O)C1CC1

Legend:
WI-38 cells = assay: MTT proliferation assay, WI-38; format: cell-based; conditions: 3 days compound exposure, 1:3 serial dilution starting at 10 μM;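 also: Eight- or ten-point dilution series, with exposure length chosen to span about three to four cell doublings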
NCI-H1048 cells = assay: MTT proliferation assay, NCI-H1048; format: cell-based; conditions: 5 days compound exposure, 1:3 serial dilution starting at 10 μM;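 also: Dose-response in 96-well plates over 8 or 10 concentration points, with exposure spanning 3-4 cell doublings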
CyclinB1/CDK1 = target: T1, CyclinB1/CDK1 (Homo sapiens, UniProt P14635); assay: Fluorescence Polarization (FP) competitive binding assay, Cyclin B1/Cdk1;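 also: fluorescence polarization read after equilibration at room temperature, with IC50 taken from serially diluted dose-response curves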
T1 construct: purchased Eurofins, discovery 14-450

CyclinE1/CDK2 = target: T2, CyclinE1/CDK2 (Homo sapiens, UniProt P24864); assay: Fluorescence Polarization (FP) competitive binding assay, Cyclin E1/Cdk2;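 also: readings taken after two-hour equilibration at room temperature in HEPES buffer with NaCl, DTT, NP-40 and BSA, IC50 fitted from eight-concentration serial dilution series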
T2 construct: purchased Eurofins, discovery 14-475

CyclinA2/CDK2 = target: T3, CyclinA2/CDK2 (Homo sapiens, UniProt P20248); assay: Fluorescence Polarization (FP) competitive binding assay, Cyclin A2/Cdk2;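 also: plates equilibrated two hours at room temperature before polarization reading, IC50 fitted from eight-concentration compound titration curves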
T3 construct: purchased CRELUX Protein Services

OVCAR3 cells = assay: MTT proliferation assay, OVCAR3; format: cell-based; conditions: 5 days compound exposure, 1:3 serial dilution starting at 10 μM;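 also: compound given as an 8- or 10-point series, one day after plating, with exposure covering roughly 3-4 cell doublings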
[1] = 10 nM Cyclin B1/Cdk1, 2 nM FAM probe; average of 2-3 independent experiments; read-out: Cyclin B FP IC50
[2] = 10 nM Cyclin E1/Cdk2, 2 nM FAM probe, average of 2-3 independent experiments, read-out: Cyclin E FP IC50
[3] = 8 nM Cyclin A2/Cdk2, 2 nM FAM probe; average of 2-3 independent experiments; read-out: Cyclin A FP IC50

Row | SMILES | GI50 (WI-38 cells) [nM] | GI50 (NCI-H1048 cells) [nM] | IC50 (CyclinB1/CDK1; [1]) [nM] | IC50 (CyclinE1/CDK2; [2]) [nM] | IC50 (CyclinA2/CDK2; [3]) [nM] | GI50 (OVCAR3 cells) [nM] | IC50 (CyclinB1/CDK1; read-out: Cyclin B FP IC50; 10 nM Cyclin B1/Cdk1, 2 nM FAM probe; average of 2-3 independent experiments) [nM] | IC50 (CyclinE1/CDK2) [nM] | IC50 (CyclinA2/CDK2; read-out: Cyclin A FP IC50; 8 nM Cyclin A2/Cdk2, 2 nM FAM probe; average of 2-3 independent experiments) [nM]
1 | CC(C)C[C@@H]1NC(=O)[C@@H](N(C)C(=O)[C@@H](NC(=O)[C@@H]2C[C@@H](F)CN2C(=O)C2(C(F)(F)F)CC(F)(F)C2)C2CC2)CCCCCCCN(C)C(=O)[C@H](Cc2cc(Cl)ccc2-c2ccc(N3C[C@H]4COC[C@H]4C3)cc2)N(C)C1=O [Example 363] ({cBuCO(3,3-F2-1-CF3)}-[Pro(trans-4-F)][Gly(cPr)][NMehhhLys(Me)]L[X38]; lactam 3-C) | 1430 | 10 | 20 | 470 | 20 | 10 | – | – | –
2 | CC(C)C[C@@H]1NC(=O)[C@@H](N(C)C(=O)[C@@H](NC(=O)[C@@H]2C[C@@H](F)CN2C(=O)C2(C(F)(F)F)CC(F)(F)C2)C2CC2)CCCCCCCN(C)C(=O)[C@H](Cc2cc(Cl)ccc2-c2ccc(N3CCN(Cc4cnn(C)c4)CC3)cc2)N(C)C1=O [Example 372] ({cBuCO(3,3-F2-1-CF3)}-[Pro(trans-4-F)][Gly(cPr)][NMehhhLys(Me)]L[X73]; lactam 3-C) | 2840 | 10 | 20 | 430 | 20 | 10 | – | – | –
3 | COCn1cc(-c2ccc(Cl)cc2C[C@H]2C(=O)N(C)CCCCC=CC[C@H](N(C)C(=O)[C@@H](NC(=O)[C@@H]3C[C@@H](F)CN3C(=O)C3(C(F)(F)F)CCC3)C3CC3)C(=O)N[C@@H](CC(C)C)C(=O)N2C)cn1 [Example 80] | 11600 | 30 | 20 | 300 | 40 | 30 | – | – | –
4 | CC[C@H](NC(=O)C1(C(F)(F)F)CC1)C(=O)N[C@@H](C)C(=O)N[C@H]1CC=CCCCCNC(=O)[C@H](Cc2cc(Cl)ccc2Cl)N(C)C(=O)[C@H](CC(C)C)NC1=O [Example 1, N—((S)-1-(((S)-1-(((3S,6S,9S)-3-(2,5-dichlorobenzyl)-6-isobutyl-4-methyl-2,5,8-trioxo-1,4,7-triazacyclohexadec-11-en-9-yl)amino)-1-oxopropan-2-yl)amino)-1-oxobutan-2-yl)-1-(trifluoromethyl)cyclopropane-1-carboxamide] | 14600 | 4000 | 20 | 440 | 210 | 6610 | – | – | –
5 | CC(C)C[C@@H]1NC(=O)[C@@H](N(C)C(=O)[C@@H](NC(=O)[C@@H]2C[C@@H](F)CN2C(=O)C2(C(F)(F)F)CC(F)(F)C2)C2CC2)CCCCCCCN(C)C(=O)[C@H](Cc2cc(Cl)ccc2-c2ccn3ncnc3c2)N(C)C1=O [Example 179] ({cBuCO(3,3-F2-1-CF3)}-[Pro(trans-4-F)][Gly(cPr)][NMehhhLys(Me)]L[X97]; lactam 3-C) | 11600 | 10 | 20 | 1130 | 30 | 30 | – | – | –
6 | CC(C)C[C@@H]1NC(=O)[C@@H](N(C)C(=O)[C@@H](NC(=O)[C@@H]2C[C@@H](F)CN2C(=O)C2(C(F)(F)F)CCC2)C2CC2)CC=CCCCCN(C)C(=O)[C@H](Cc2cc(Cl)ccc2-c2cnn(C)c2)N(C)C1=O [Example 34] | 13100 | 60 | 20 | 210 | 20 | 110 | – | – | –
7 | Cc1nc(C)c(-c2ccc(Cl)cc2C[C@H]2C(=O)N(C)CCCCCCC[C@H](N(C)C(=O)[C@@H](NC(=O)[C@@H]3C[C@@H](F)CN3C(=O)C3(C(F)(F)F)CC(F)(F)C3)C3CC3)C(=O)N[C@@H](CC(C)C)C(=O)N2C)s1 [Example 207] ({cBuCO(3,3-F2-1-CF3)}-[Pro(trans-4-F)][Gly(cPr)][NMehhhLys(Me)]L[X14]; lactam 3-C) | 4940 | 30 | 20 | 2730 | 50 | 40 | – | – | –
8 | CSc1cncc(-c2ccc(Cl)cc2C[C@H]2C(=O)N(C)CCCCCCC[C@H](N(C)C(=O)[C@@H](NC(=O)[C@@H]3C[C@@H](F)CN3C(=O)C3(C(F)(F)F)CC(F)(F)C3)C3CC3)C(=O)N[C@@H](CC(C)C)C(=O)N2C)c1 [Example 202] ({cBuCO(3,3-F2-1-CF3)}-[Pro(trans-4-F)][Gly(cPr)][NMehhhLys(Me)]L[X51]; lactam 3-C) | 9110 | 40 | 20 | 1490 | 50 | 60 | – | – | –
9 | COc1ncc(Cl)cc1C[C@H]1C(=O)N(C)CCCCCCC[C@H](N(C)C(=O)[C@@H](NC(=O)[C@@H]2C[C@@H](F)CN2C(=O)[C@@]2(C(F)(F)F)CCCCO2)C2CC2)C(=O)N[C@@H](CC(C)C)C(=O)N1C [Example 223] ({Oxane2carbonyl(2R-CF3)}-[Pro(trans-4-F)][Gly(cPr)][NMehhhLys(Me)]L[NMe3Pal(2-OMe,5-Cl)]; lactam 3-C) | 7760 | 10 | – | – | – | 10 | 20 | 100 | 20
10 | CC(C)C[C@@H]1NC(=O)[C@@H](N(C)C(=O)[C@@H](NC(=O)[C@@H]2C[C@@H](F)CN2C(=O)[C@@]2(C(F)(F)F)CCCCO2)C2CC2)CCCCCCCN(C)C(=O)[C@H](Cc2cc(Cl)ccc2OC2(C)CC2)N(C)C1=O [Example 260] ({Oxane2carbonyl(2R-CF3)}-[Pro(trans-4-F)][Gly(cPr)][NMehhhLys(Me)]L[X64]; lactam 3-C) | 6390 | 40 | 20 | 100 | 50 | 40 | – | – | –
11 | CC(C)C[C@@H]1NC(=O)[C@@H](N(C)C(=O)[C@@H](NC(=O)[C@@H]2C[C@@H](F)CN2C(=O)C2(C(F)(F)F)CC(F)(F)C2)C2CC2)CCCCCCCNC(=O)[C@H](Cc2cc(Cl)cc3c2OCCO3)N(C)C1=O [Example 330] ({cBuCO(3,3-F2-1-CF3)}-[Pro(trans-4-F)][Gly(cPr)][NMe(hhhLys)]L[X33]; lactam 3-C) | 18500 | 10 | 20 | 100 | 30 | 10 | – | – | –
12 | CC(C)C[C@@H]1NC(=O)[C@@H](N(C)C(=O)[C@@H](NC(=O)[C@@H]2C[C@@H](F)CN2C(=O)C2(C(F)(F)F)CC(F)(F)C2)C2CC2)CCCCCCCN(C)C(=O)[C@H](Cc2cc(Cl)ccc2-c2ccc3c(c2)CCN(C)C3)N(C)C1=O [Example 407] ({cBuCO(3,3-F2-1-CF3)}-[Pro(trans-4-F)][Gly(cPr)][NMehhhLys(Me)]L[X56]; lactam 3-C) | 3010 | 10 | 20 | 1460 | 20 | 20 | – | – | –
13 | CC(=O)N1CCC(=Cc2ccc(Cl)cc2C[C@H]2C(=O)NCCCCCCC[C@H](N(C)C(=O)[C@@H](NC(=O)[C@@H]3C[C@@H](F)CN3C(=O)C3(C(F)(F)F)CC(F)(F)C3)C3CC3)C(=O)N[C@@H](CC(C)C)C(=O)N2C)CC1 [Example 288] ({cBuCO(3,3-F2-1-CF3)}-[Pro(trans-4-F)][Gly(cPr)][NMe(hhhLys)]L[X18]; lactam 3-C) | 13800 | 20 | 20 | 360 | 30 | 20 | – | – | –
14 | CC(C)C[C@@H]1NC(=O)[C@@H](N(C)C(=O)[C@@H](NC(=O)[C@@H]2C[C@@H](F)CN2C(=O)[C@@]2(C(F)(F)F)CCCCO2)C2CC2)CCCCCCCN(C)C(=O)[C@H](Cc2cc(Cl)ccc2-c2cnn(S(C)(=O)=O)c2)N(C)C1=O [Example 299] ({Oxane2carbonyl(2R-CF3)}-[Pro(trans-4-F)][Gly(cPr)][NMehhhLys(Me)]L[X82]; lactam 3-C) | 14300 | 10 | 20 | 130 | 20 | 10 | – | – | –
15 | CC(C)C[C@@H]1NC(=O)[C@@H](N(C)C(=O)[C@@H](CC(=O)[C@@H]2C[C@@H](F)CN2C(=O)C2(C(F)(F)F)CC(F)(F)C2)C2CC2)CCCCCCN(C)C(=O)[C@H](Cc2cc(Cl)ccc2C2=CCOCC2)N(C)C1=O [Example 71] | 13800 | 70 | 20 | 1590 | 20 | 90 | – | – | –
16 | CC(C)C[C@@H]1NC(=O)[C@@H](N(C)C(=O)[C@@H](NC(=O)[C@@H]2C[C@@H](F)CN2C(=O)C2(C(F)(F)F)CC(F)(F)C2)C2CC2)CCCCCCCN(C)C(=O)[C@H](Cc2cc(Cl)ccc2-c2ccc(N3CCN(C(C)C)CC3)cc2)N(C)C1=O [Example 347] ({cBuCO(3,3-F2-1-CF3)}-[Pro(trans-4-F)][Gly(cPr)][NMehhhLys(Me)]L[X43]; lactam 3-C) | 1810 | 10 | 20 | 650 | 20 | 10 | – | – | –
17 | CC(=O)N1CCC(=Cc2ccc(Cl)cc2C[C@H]2C(=O)N(C)CCCCCCC[C@H](N(C)C(=O)[C@@H](NC(=O)[C@@H]3C[C@@H](F)CN3C(=O)C3(C(F)(F)F)CC(F)(F)C3)C3CC3)C(=O)N[C@@H](CC(C)C)C(=O)N2C)CC1 [Example 289] ({cBuCO(3,3-F2-1-CF3)}-[Pro(trans-4-F)][Gly(cPr)][NMehhhLys(Me)]L[X18]; lactam 3-C) | 3780 | 10 | 20 | 320 | 30 | 10 | – | – | –
